The source of these data is paper PMC7016952, “Characterization of the Menin-MLL Interaction as Therapeutic Cancer Target” (Cancers, 2020).

Series [1] concerns the target T1, menin-MLL interaction (Homo sapiens, UniProt O00255).
T1 construct: recombinant full length, His-tagged menin
T1 sequence (O00255 1-610): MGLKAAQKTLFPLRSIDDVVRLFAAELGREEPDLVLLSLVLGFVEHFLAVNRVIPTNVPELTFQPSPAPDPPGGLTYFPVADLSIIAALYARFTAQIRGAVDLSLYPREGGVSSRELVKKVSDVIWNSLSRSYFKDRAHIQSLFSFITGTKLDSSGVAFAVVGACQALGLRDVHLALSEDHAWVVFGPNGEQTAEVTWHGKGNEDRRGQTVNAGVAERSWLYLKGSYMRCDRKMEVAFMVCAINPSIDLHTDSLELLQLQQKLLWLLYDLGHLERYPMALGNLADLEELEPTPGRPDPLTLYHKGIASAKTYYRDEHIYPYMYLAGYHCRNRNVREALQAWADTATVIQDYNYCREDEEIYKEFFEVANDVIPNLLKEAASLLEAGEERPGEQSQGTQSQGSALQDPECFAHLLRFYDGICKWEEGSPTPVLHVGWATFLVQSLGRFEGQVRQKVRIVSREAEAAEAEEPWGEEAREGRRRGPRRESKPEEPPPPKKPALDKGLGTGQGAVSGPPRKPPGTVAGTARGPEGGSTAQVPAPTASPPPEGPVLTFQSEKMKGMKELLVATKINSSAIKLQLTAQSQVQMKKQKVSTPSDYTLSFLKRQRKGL
Briefly: TR-FRET menin-MLL binding assay. To be noted: BAY-155 vs MI-503. For orientation: In TR-FRET formats the signal depends on donor and acceptor labels being close together.

Series [2] deals with safety pharmacology relevant proteins (GPCRs, ion channels and transporters). Briefly: Selectivity panel of safety pharmacology assays. To be noted: 10 µM.
Series [3] relates to T2, menin protein levels in VCaP cells.
T2 construct: endogenous in cells; host or cells: VCaP
As to the kind of experiment: Western blot of menin protein level. The class given is cell-based, human. To be noted: Western blot. A general note: A western blot detects proteins with antibodies after separation by electrophoresis.

In series [4] the test system is JMSU-1 cells. Briefly: RNA-seq differential gene expression, JMSU-1. The class given is cell-based. To be noted: JMSU-1, 5 µM, 48 h. As to the method: (§1) Total RNA was isolated using RNeasy-Plus Mini kit (Qiagen, Hilden, Germany). RNA (1 μg) was reverse transcribed using SuperScript III First-Strand Synthesis SuperMix (Life Technologies) and the generated cDNA was analyzed with commercial primers (Supplementary Materials Table S1) by qRT-PCR using TaqMan Fast Advanced Master Mix (Life Technologies). For the RNA-seq study, ZR-75-1, BT474, PANC-1, MiaPaCa-2, 22RV1, JMSU-1, DLD-1, SW1463, LoVo and G401 cells were treated with 5 µM BAY-155 or DMSO for 48 h prior to RNA extraction. After 48 h of 5 µM BAY-155 or DMSO treatment, MCF7, VCaP and LNCaP cells were stimulated for further 12 h with 0.1 nM of E2 (ß-Estradiol) or 1 nM R1881, respectively. MCF7, VCaP and LNCaP cells were cultured in starvation medium (containing 5 µM BAY-155 or DMSO) 6 h before stimulation. RNA was isolated using RNeasy-Plus Mini kit (Qiagen). The purified RNA was used for library preparation (Illumina, San Diego, CA, USA. TruSeq Stranded mRNA Kit) and the generated libraries were sequenced (Illumina, HiSeq2500 HTv4, SR, dual-indexing, 50 cycles).
RNA-seq reads were aligned to hg38 using STAR aligner. Protein-coding genes with more than 10 reads in more than three samples were used for the analysis (total samples N = 86; genes N = 13,003). […]

Series [5] concerns LNCaP cells. Briefly: RNA-seq after R1881 stimulation, LNCaP. It is filed as cell-based. Here is the method:
as §1
(§2) RNA-seq reads were aligned to hg38 using STAR aligner. Protein-coding genes with more than 10 reads in more than three samples were used for the analysis (total samples N = 86; genes N = 13,003). DESeq2 was used to find genes differentially expressed upon treatment by the menin inhibitor in each cell line compared to DMSO or hormonal treatment (for MCF-7, LNCaP and VCaP cell lines). […] GSEA analysis was run on the pre-ranked list based on logFC in prostate (VCaP and LNCaP) and breast (MCF7) cell lines. Data are available at GEO under accession number GSE136272.

Series [6] has as its system MCF7 cells. Briefly: RNA-seq after E2 stimulation, MCF7. It is filed as cell-based, human. Here is the method: as §1, §2
Series [7] concerns MV4;11 xenograft. As to the kind of experiment: MV4;11 xenograft efficacy. The class given is in vivo, mice. Here is the method: Tumor cells were injected subcutaneously into the flanks of 6- to 9-week old animals. Efficacy studies in xenograft models were performed at Bayer or EPO GmbH (Berlin-Buch, Germany) using NMRI nu/nu, SCID, BALB/c Nude female mice or SCID male mice (VCaP tumors). All animal studies were conducted in accordance with the animal welfare laws and were approved by the State Office for Health and Social Affairs Berlin (LAGeSo). Experiments were run under the animal license B3600a0007. Compound treatment started at a predefined tumor size or burden or at a predefined day after cell inoculation. […] Subcutaneous tumor volumes were determined by caliper measurement.

Series [8] deals with RKO xenograft. Briefly: RKO xenograft efficacy. It is filed as in vivo, mice. Here is the method: (§3) Tumor cells were injected subcutaneously into the flanks of 6- to 9-week old animals. Efficacy studies in xenograft models were performed at Bayer or EPO GmbH (Berlin-Buch, Germany) using NMRI nu/nu, SCID, BALB/c Nude female mice or SCID male mice (VCaP tumors). All animal studies were conducted in accordance with the animal welfare laws and were approved by the State Office for Health and Social Affairs Berlin (LAGeSo). Experiments were run under the animal license B3600a0007. Compound treatment started at a predefined tumor size or burden or at a predefined day after cell inoculation. BAY-155 was administered orally (p.o.) at various doses and regorafenib, tamoxifen and enzalutamide (resuspended in PEG400/H2O 6/4 or PEG400/EtOH 9/1) were used as control treatment for RKO, MCF7 and VCaP xenografts, respectively. Subcutaneous tumor volumes were determined by caliper measurement.

In series [9] the test system is VCaP xenograft. Briefly: VCaP xenograft efficacy. The class given is in vivo, mice. As to the method:
as §3

For series [10], the system named is ER signaling pathway genes in MCF7 tumor samples. As to the kind of experiment: Ex vivo gene expression in MCF7 xenografts. Also noted: species or system mice. To be noted: 27 days of treatment. Here is the method:
as §1
Tumors were harvested, dissociated and total RNA was extracted using the TissueLyser (Qiagen, Hilden, Germany) together with RNeasy-Plus Mini kit according to the manufacturer protocol.

Series [11] deals with CYP 3A4 (Homo sapiens, UniProt P08684). To be noted: cited from earlier work.
For series [12], the target named is CYP 2C9 (Homo sapiens, UniProt P11712). To be noted: cited from earlier work.
In series [13] the target is CYP 2C8 (Homo sapiens, UniProt P10632). To be noted: cited from earlier work.
CYP 2C8, sequence (P10632 whole entry): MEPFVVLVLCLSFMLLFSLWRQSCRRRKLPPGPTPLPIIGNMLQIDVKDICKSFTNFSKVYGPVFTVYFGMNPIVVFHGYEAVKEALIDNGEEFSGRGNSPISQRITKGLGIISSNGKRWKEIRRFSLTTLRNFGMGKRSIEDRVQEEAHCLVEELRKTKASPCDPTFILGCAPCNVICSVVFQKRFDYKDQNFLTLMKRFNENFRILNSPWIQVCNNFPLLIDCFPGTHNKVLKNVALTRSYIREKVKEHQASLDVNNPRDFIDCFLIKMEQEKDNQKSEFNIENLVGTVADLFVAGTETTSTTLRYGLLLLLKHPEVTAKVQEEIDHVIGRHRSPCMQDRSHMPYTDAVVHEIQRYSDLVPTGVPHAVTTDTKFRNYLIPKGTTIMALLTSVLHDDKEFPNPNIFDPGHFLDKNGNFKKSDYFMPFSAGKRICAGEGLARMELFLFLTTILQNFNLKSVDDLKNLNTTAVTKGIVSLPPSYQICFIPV

CYP 3A4, sequence (P08684 whole entry): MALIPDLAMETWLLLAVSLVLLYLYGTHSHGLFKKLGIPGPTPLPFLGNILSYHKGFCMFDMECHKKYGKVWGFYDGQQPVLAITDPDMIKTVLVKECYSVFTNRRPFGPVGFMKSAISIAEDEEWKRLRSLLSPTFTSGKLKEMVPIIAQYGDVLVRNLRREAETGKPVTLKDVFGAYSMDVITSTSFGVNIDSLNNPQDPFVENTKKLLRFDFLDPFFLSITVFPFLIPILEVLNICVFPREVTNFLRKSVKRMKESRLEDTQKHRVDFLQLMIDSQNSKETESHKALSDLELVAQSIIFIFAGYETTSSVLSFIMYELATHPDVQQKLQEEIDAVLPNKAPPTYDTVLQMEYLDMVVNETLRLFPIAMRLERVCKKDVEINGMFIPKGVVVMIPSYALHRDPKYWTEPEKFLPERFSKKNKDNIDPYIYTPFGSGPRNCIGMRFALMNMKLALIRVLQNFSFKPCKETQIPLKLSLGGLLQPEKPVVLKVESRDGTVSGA
CYP 2C9, sequence (P11712 whole entry): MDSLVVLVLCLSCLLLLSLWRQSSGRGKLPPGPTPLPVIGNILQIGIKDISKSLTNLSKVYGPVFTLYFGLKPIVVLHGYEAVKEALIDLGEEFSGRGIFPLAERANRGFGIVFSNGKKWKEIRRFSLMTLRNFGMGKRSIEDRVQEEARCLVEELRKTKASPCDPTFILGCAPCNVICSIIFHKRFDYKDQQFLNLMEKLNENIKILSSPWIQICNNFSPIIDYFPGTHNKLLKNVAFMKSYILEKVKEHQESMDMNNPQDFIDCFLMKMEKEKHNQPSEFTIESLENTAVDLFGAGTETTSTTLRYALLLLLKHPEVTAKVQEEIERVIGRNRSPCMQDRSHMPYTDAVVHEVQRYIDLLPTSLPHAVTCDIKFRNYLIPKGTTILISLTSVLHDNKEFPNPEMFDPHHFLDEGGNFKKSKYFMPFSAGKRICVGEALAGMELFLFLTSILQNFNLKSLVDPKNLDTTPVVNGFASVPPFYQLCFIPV

As to `Cc1c(CN2CCC3(CC2)CN(c2ncnc4sc(CC(F)(F)F)cc24)C3)ccc2c1cc(C#N)n2CC(N)=O` [BAY-155], in series [1], the “fold better inhibitory IC50 compared to MI-503” value worked out at 10 fold. In addition, the “number of tested proteins inhibited by ≥ 50%” value in [2] is on record as 7. For the same compound, the “cases in which an IC50 value could be reached” value in series [2] (of 77 targets) is reported as 7/77. Moreover, the menin protein levels result in [3] is “reduce menin protein levels in a time- and concentration-dependent manner”. The “number of differentially expressed genes” value in series [4] was 665 genes. Further, in series [5], the “GSEA of androgen-regulated gene sets” value was “significant reversal of androgen-induced gene expression changes”. Further, the “genes down-regulated by androgen stimulation that were reversed” value in series [5] (5 µM, R1881) is reported as 141 genes. In addition, in [5] (5 µM, R1881), the “genes up-regulated by androgen stimulation that were reversed” value stood at 24 genes. In addition, in series [6] (MCF7), the “GSEA of estradiol (E2) up- and down-regulated gene sets” value is “slight reverse regulation”. The “E2 down-regulated genes significantly changed” value in series [6] (MCF7, 5 µM, E2) was determined as 13 genes. Moreover, the “E2 up-regulated genes significantly changed” value in series [6] (MCF7, 5 µM, E2) was found to be 26 genes. The body weight entry in [7] (180 mg/kg 2QD p.o.) was “no evidence of body weight loss”. The “tumor volume T/C” value in series [7] (180 mg/kg 2QD p.o., regression) is less than 0.02. Moreover, in [7] (p.o.), the tumor weights result is “clear concentration-dependent trend for reduced tumor weights”. Further, in [8], the “tumor volume and weight (anti-growth effects)” value is listed as “no significant anti-growth effects”. In addition, the “tumor volume and tumor weight” value in series [9] is on record as “no significant effects”. Further, the “EGR3, GREB1 and PGR1 expression ex vivo” value in series [10] is “no significant effects”. In addition, the IC50 in series [11], in series [12] and in [13] was greater than 20 µM each time.
